Experimental data taken from ChEMBL document CHEMBL3112556, “Novel GlyT1 inhibitor chemotypes by scaffold hopping. Part 2: development of a [3.3.0]-based series and other piperidine bioisosteres” (Bioorg Med Chem Lett, 2014).
Values belong to the compound of their own block, whether it stands above or below them. Activity calls are given as the source filed them. The calls are words filed in the database; no cut-off is given here.

Columns and labels:
[1] = target: T1, Sodium- and chloride-dependent glycine transporter 2 (Homo sapiens, UniProt Q9Y345); assay: Inhibition of GlyT2 (unknown origin) assessed as [14C]-glycine transport
T1 sequence (Q9Y345 whole entry): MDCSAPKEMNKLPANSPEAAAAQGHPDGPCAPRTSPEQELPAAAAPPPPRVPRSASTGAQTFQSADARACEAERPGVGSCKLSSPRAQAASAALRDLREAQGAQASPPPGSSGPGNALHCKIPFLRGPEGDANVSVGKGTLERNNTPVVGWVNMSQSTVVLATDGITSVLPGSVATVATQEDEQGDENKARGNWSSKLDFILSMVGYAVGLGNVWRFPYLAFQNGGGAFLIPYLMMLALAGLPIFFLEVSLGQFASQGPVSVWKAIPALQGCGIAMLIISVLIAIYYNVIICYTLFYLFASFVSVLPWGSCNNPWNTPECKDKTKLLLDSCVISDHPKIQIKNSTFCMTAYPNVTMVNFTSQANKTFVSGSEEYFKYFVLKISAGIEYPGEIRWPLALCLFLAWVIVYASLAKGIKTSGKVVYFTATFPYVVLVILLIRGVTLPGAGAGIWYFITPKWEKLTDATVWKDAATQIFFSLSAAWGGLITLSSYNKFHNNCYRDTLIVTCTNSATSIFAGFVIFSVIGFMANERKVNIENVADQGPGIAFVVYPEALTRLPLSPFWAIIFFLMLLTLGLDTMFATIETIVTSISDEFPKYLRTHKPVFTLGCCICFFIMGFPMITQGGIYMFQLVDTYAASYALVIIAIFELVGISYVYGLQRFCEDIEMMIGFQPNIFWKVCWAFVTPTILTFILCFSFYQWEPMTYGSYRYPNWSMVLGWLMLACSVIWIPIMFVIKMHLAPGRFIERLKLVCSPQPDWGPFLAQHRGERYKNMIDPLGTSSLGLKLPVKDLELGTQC

[2] = target: T2, Sodium- and chloride-dependent glycine transporter 1 (Homo sapiens, UniProt P48067); assay: Inhibition of GlyT1 (unknown origin) assessed as [14C]-glycine transport
T2 sequence (P48067 whole entry): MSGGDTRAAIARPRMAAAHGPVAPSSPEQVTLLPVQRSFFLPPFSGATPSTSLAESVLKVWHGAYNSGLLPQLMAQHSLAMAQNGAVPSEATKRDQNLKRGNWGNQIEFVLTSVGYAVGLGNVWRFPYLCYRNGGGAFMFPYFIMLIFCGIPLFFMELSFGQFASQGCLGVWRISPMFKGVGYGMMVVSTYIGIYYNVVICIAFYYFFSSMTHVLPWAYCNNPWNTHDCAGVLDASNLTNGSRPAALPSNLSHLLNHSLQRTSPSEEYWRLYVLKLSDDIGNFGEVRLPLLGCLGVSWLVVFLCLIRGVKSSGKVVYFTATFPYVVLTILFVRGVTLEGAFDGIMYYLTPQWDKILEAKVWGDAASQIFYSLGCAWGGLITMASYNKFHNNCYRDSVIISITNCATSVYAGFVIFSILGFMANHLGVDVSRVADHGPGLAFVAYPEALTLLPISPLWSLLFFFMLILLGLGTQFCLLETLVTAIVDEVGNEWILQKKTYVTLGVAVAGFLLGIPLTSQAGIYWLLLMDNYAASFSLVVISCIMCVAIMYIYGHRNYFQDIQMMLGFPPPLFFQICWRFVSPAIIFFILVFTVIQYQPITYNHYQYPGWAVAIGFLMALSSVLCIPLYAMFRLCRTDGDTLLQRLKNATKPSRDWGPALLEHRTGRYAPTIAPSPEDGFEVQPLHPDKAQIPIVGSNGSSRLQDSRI

[3] = target: T3, Sodium- and chloride-dependent glycine transporter 1 (Homo sapiens) (UniProt P48067); assay: Competitive inhibition of GlyT1 (unknown origin) assessed as [14C]-glycine transport by Eadie-Hoffstee plot analysis
T3 sequence (whole entry): T2 sequence (P48067 whole entry)

[4] = Metabolic stability in rat liver microsomes assessed as compound remaining after 90 mins; assay type: ADME; settings: read-out: Stability
[5] = Inhibition of CYP450 (unknown origin); assay type: ADME, Homo sapiens
[6] = Fraction unbound in rat; assay type: ADME; settings: in vitro

SMILES: Cn1cnc(S(=O)(=O)N2CC(C(NC(=O)c3ccc(Cl)cc3Cl)c3ccccc3)C2)c1 (racemic)
competitive inhibition (active/inactive) [3]: Active

SMILES: CCCS(=O)(=O)N1CCC(C(NC(=O)c2ccc(Cl)cc2Cl)c2ccccc2)CC1 (racemic)
competitive inhibition (active/inactive) [3]: Active

SMILES: Cn1cnc(S(=O)(=O)N2CC(C(NC(=O)c3ccc(Cl)cc3Cl)c3ccccn3)C2)c1 (racemic)
remaining at 1.5 h [4]: 75%
IC50 [5]: > 10 µM
Fu [6]: 14%
competitive inhibition (active/inactive) [3]: Active

SMILES: Cn1cnc(S(=O)(=O)N2CCC(C(NC(=O)c3ccc(Cl)cc3Cl)c3ccccc3)CC2)c1 (racemic)
competitive inhibition (active/inactive) [3]: Active

SMILES: Cn1cnc(S(=O)(=O)N2CCC(C(NC(=O)c3ccc(Cl)cc3Cl)c3ccccn3)CC2)c1 (racemic)
competitive inhibition (active/inactive) [3]: Active

SMILES: Cn1cnc(S(=O)(=O)N2CC(C(NC(=O)c3ccc(Cl)cc3Cl)c3cccs3)C2)c1 (racemic)
competitive inhibition (active/inactive) [3]: Active

SMILES: CCCS(=O)(=O)N1CC(C(NC(=O)c2ccc(Cl)cc2Cl)c2ccccc2)C1 (racemic)
competitive inhibition (active/inactive) [3]: Active

SMILES: Cn1cnc(S(=O)(=O)N2CC3CCC(NC(=O)c4ccc(Cl)c(Cl)c4)C3C2)c1 (racemic)
IC50 [1]: > 30 µM

SMILES: Cn1cnc(S(=O)(=O)N2CC3CCC(NC(=O)c4ccc(F)c(F)c4)C3C2)c1 (racemic)
IC50 [1]: > 30 µM
IC50 [2]: 1.57 µM

SMILES: Cn1cnc(S(=O)(=O)N2CCC(C(NC(=O)c3ccc(Cl)cc3Cl)c3cccs3)CC2)c1 (racemic)
competitive inhibition (active/inactive) [3]: Active

SMILES: Cn1cnc(S(=O)(=O)N2CC3CCC(NC(=O)c4ccc(F)cc4F)C3C2)c1 (racemic)
IC50 [1]: > 30 µM

SMILES: Cn1cnc(S(=O)(=O)N2CC3CCC(NC(=O)c4ccccc4F)C3C2)c1 (racemic)
IC50 [1]: > 30 µM

SMILES: O=C(NC1CCC2CN(S(=O)(=O)c3ccccc3)CC21)c1ccc(Cl)cc1Cl (racemic)
IC50 [1]: > 30 µM
IC50 [2]: > 10 µM

SMILES: Cn1cc(S(=O)(=O)N2CC3CCC(NC(=O)c4ccc(Cl)cc4Cl)C3C2)nn1 (racemic)
IC50 [1]: > 30 µM
IC50 [2]: 0.015 µM

SMILES: Cn1cnc(S(=O)(=O)N2CC3CCC(NC(=O)c4ccccc4C(F)(F)F)C3C2)c1 (racemic)
competitive inhibition (active/inactive) [3]: Active
IC50 [1]: > 30 µM
IC50 [2]: 0.112 µM

Further lines, results first:

IC50 [1]: > 30 µM
IC50 [2]: 0.115 µM
SMILES: Cn1cnc(S(=O)(=O)N2CC3CCC(NC(=O)c4ccccc4Cl)C3C2)c1 (racemic)

IC50 [1]: > 30 µM
IC50 [2]: > 10 µM
SMILES: CCCCS(=O)(=O)N1CC2CCC(NC(=O)c3ccc(Cl)cc3Cl)C2C1 (racemic)

IC50 [1]: > 30 µM
SMILES: Cn1cnc(S(=O)(=O)N2CC3CCC(NC(=O)c4c(F)cccc4F)C3C2)c1 (racemic)

IC50 [1]: > 30 µM
SMILES: Cn1cnc(S(=O)(=O)N2CC3CCC(NC(=O)c4ccc(F)cc4)C3C2)c1 (racemic)

IC50 [1]: > 30 µM
IC50 [2]: > 10 µM
SMILES: O=C(NC1CCC2CN(S(=O)(=O)c3ccccn3)CC21)c1ccc(Cl)cc1Cl (racemic)

IC50 [1]: > 30 µM
IC50 [2]: > 10 µM
SMILES: Cn1cnc(S(=O)(=O)N2CC3CCC(NC(=O)c4cccc(F)c4)C3C2)c1 (racemic)

IC50 [1]: > 30 µM
SMILES: Cn1cnc(S(=O)(=O)N2CC3CCC(NC(=O)C4CCCCC4)C3C2)c1 (racemic)

remaining at 1.5 h [4]: 30%
IC50 [5]: > 10 µM
Fu [6]: 8.1%
IC50 [1]: > 30 µM
SMILES: Cn1cnc(S(=O)(=O)N2CC3CCC(NC(=O)c4ccc(Cl)cc4Cl)C3C2)c1 (racemic)

IC50 [1]: > 30 µM
SMILES: Cn1cnc(S(=O)(=O)N2CC3CCC(NC(=O)c4ccc(Cl)cc4)C3C2)c1 (racemic)

IC50 [1]: > 30 µM
IC50 [2]: > 10 µM
SMILES: O=C(NC1CCC2CN(S(=O)(=O)c3cccs3)CC21)c1ccc(Cl)cc1Cl (racemic)

IC50 [1]: > 30 µM
IC50 [2]: > 10 µM
SMILES: CCS(=O)(=O)N1CC2CCC(NC(=O)c3ccc(Cl)cc3Cl)C2C1 (racemic)

IC50 [1]: > 30 µM
IC50 [2]: > 10 µM
SMILES: CCCS(=O)(=O)N1CC2CCC(NC(=O)c3ccc(Cl)cc3Cl)C2C1 (racemic)
